This is an account of results in patent US10893676B2, “1-acetyl-3-phenyl urea compound, and use thereof” (Sumitomo Chemical Company, Limited, priority 2016, dated 2021).

One test concerns Arabidopsis thaliana. The experiment in a line: Inhibitory activity on emergence of Arabidopsis thaliana (24 well plate, filter paper). It is filed as in vivo. As to conditions: treatment concentration 8000 ppm, visually evaluated seven days after sowing, indices 0 (no effect) to 100 (no emergence). Here is the method: Inhibitory Activity on Emergence of Arabidopsis thaliana
Each well of 24 well microtiter plates was matted with a filter paper, and to the filter paper was added dropwise the solution in which the present compound or the compound B was dissolved in acetone. After air-drying, distilled water was added to each well so that the concentration of the present compound or the compound B in each well would be 8000 ppm. Next, seeds of Arabidopsis thaliana were sown into each well containing the present compound or the compound B, followed by putting a lid on each well, and cultivating Arabidopsis thaliana under the condition that a cultivation at 25° C. under lighting for 16 hours and a successive cultivation at 25° C. under dark for 8 hours were repeated. Seven days after sowing, the inhibitory activity on emergence of Arabidopsis thaliana was visually evaluated by classifying the activity into 0 to 100 indices (0: no effect to 100: no emergence).

The subject of another test is Amaranthus retroflexus. The experiment in a line: Post-emergence treatment test in a farmland (foliar spray, greenhouse pots). It is filed as in vivo. As to conditions: application rate 4 kg/ha, sprayed at two-leaf stage, visually evaluated nine days after spraying, 11 stages from 0 (no effect) to 10 (complete kill). Here is the method:
Nursery soil was put in a plastic pot measuring 8 cm in diameter and 6.5 cm in height, and in the pot, seeds of Amaranthus retroflexus were sown, and then covered with soil of about 0.5 cm thickness, and the plants were grown in a greenhouse. When the Amaranthus retroflexus plants were grown to two-leaf stage, a diluted solution containing either the present compound or a compound represented by formula (B) below (which is described in European Patent No. 1122244 B2) (hereinafter, referred to as Compound B) was uniformly sprayed on the whole Amaranthus retroflexus plants so that the application rates of the chemicals would be values indicated in Table 1.
Here the diluted solution was prepared by dissolving the present compound or the compound B in dimethylformamide solution containing 2% of Tween 20 (polyoxyethylene sorbitan fatty acid ester) (manufactured by MP Biomedicals Inc.) and then diluting the solution with deionized water.
The Amaranthus retroflexus plants that were sprayed with the diluted solution containing the present compound or the compound B were grown in a greenhouse. Nine days after spraying, the efficacy for controlling Amaranthus retroflexus plants was observed, thereby examining a herbicidal effect. Here the herbicidal effect was visually observed and evaluated by classifying the effect into 11 stages from 0 (no effect) to 10 (complete kill).

Turning to `CCOC(=O)COc1ncccc1Oc1cc(NC(=O)NC(C)=O)c(F)cc1Cl` [Present compound], the “Inhibitory Activity on Emergence” value in the test with Arabidopsis thaliana was 80; in the test with Arabidopsis thaliana (listed as present compound) it was “higher inhibitory activity compared to the compound B”. Further, the “Herbicidal Effect” value is 8 with Amaranthus retroflexus and “higher herbicidal effect compared to the compound B” in the test on Amaranthus retroflexus (listed as present compound).

With `CCOC(=O)COc1ncccc1Oc1cc(NC(C)=O)c(F)cc1Cl` [Compound B, N-[4-chloro-2-fluoro-5-{2-(ethoxycarbonyl)methoxy-3-pyridyloxy}phenyl]acetamide, reference compound], the “Inhibitory Activity on Emergence” value with Arabidopsis thaliana is recorded as 30. Moreover, in the test with Amaranthus retroflexus, the “Herbicidal Effect” value is on record as 1.
